14 compounds from patent publication US9701685B2, “Spiropyrrolidines as MDM2 inhibitors” (HUDSON BIOPHARMA INC., priority 2014, dated 2017) can be followed below.

One test has as its target GST-tag full length MDM2 (Homo sapiens (Human), UniProt Q00987). The test can be described thus: MDM2-p53 TR-FRET Binding Assays. Particulars: MDM2 / biotin p53 peptide. An excerpt: MDM2-p53 TR-FRET Binding Assays
Examples are listed in the following.
Background: In TR-FRET formats the signal depends on donor and acceptor labels being close together.

A further test concerns SJSA-1. The test can be described thus: Cell proliferation inhibition (CCK-8) against SJSA-1. In kind it is cell-based. Particulars: SJSA-1 human osteosarcoma cells, 5 days. The procedure:
Cellular data of selected compounds against SW480 and SJSA-1 was conducted according to the following protocol.
Cells in the logarithmic growth phase were seeded into 96-well plates (Corning, 3599; 180 μL/well; 3000 cells/well for both SW480 and SJSA-1 cell lines) and cultured in an incubator (Thermo, 3111) for 24 h. Cells were then treated in triplicate by adding 20 μL/well solution containing different concentrations of the tested compounds in 5% CO2 at 37° C. for 5 days. After that, cells were treated for additional 4 h by adding 10 μL/well Cell Counting Kit-8 (CCK-8; DojinDo, CK04) solution. Finally, the absorbance was read at 450 nm with a microplate reader spectra-MAX190 (Molecular Devices, Sunnyvale, Calif.). The IC50 value was determined with SofeMax Pro, a software equipped in this reader. The cell proliferation inhibition rate was calculated as: proliferation inhibition (%)=[1-(A450 treated/A450 control)]×100%.
All the tested compounds could be dissolved in DMSO at 10^−2 M (as stock solution). […] The compounds were diluted at 9 3-fold serial concentrations beginning at the initial concentration of 10 μM (i.e., the highest final concentration to treat the cells). The detailed drug dilution protocol is: Add 5 μL stock solution (10^−2 M) into 495 μL medium, transfer 125 μL of the resulting solution (100 μM) into 250 μL medium, and repeat this till the 9th resulting concentration of 15.2 nM. Pipet 20 μL of each drug dilution into cell plates.

GST-tag full length MDM2, sequence (Q00987 whole entry): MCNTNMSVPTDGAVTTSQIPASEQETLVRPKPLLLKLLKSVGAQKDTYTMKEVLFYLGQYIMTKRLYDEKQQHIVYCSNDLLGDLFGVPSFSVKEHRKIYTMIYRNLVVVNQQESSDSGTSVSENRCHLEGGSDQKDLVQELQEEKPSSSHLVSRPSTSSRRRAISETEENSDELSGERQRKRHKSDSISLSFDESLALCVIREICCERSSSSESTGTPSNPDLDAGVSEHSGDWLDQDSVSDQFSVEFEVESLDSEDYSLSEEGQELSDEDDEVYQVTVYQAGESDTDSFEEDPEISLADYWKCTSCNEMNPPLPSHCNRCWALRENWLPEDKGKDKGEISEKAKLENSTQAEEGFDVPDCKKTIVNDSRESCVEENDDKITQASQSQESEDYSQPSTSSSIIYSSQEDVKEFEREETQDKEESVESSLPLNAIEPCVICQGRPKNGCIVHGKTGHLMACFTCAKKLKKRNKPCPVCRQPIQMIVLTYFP

In general, IC50 refers to the point on the concentration scale where inhibition reaches its midpoint. Higher therefore signals weaker potency. For the compound `COc1cc(C(=O)O)ccc1NC(=O)[C@@H]1N[C@@H](C[C@H](C)C(F)(F)F)[C@@]2(C(=O)Nc3cc(Cl)ccc32)[C@H]1c1cccc(Cl)c1F` (racemic) [Example 10, 4-[[(2′R,3R,3′S,5′S)-6-chloro-3′-(3-chloro-2-fluoro-phenyl)-2-oxo-5′-[(2S)-3,3,3-trifluoro-2-methyl-propyl]spiro[indoline-3,4′-pyrrolidine]-2′-carbonyl]amino]-3-methoxy-benzoic acid], the IC50 on GST-tag full length MDM2 was at most 7.2 nM; in the test on SJSA-1 (Homo sapiens, SJSA-1, 120 h), at most 71 nM. For `COc1cc(C(=O)O)ccc1NC(=O)[C@@H]1N[C@@H](C[C@@H](C)C(F)(F)F)[C@@]2(C(=O)Nc3cc(Cl)ccc32)[C@H]1c1cccc(Cl)c1F` (racemic) [Example 11, 4-[[(2′R,3R,3′S,5′S)-6-chloro-3′-(3-chloro-2-fluoro-phenyl)-2-oxo-5′-[(2R)-3,3,3-trifluoro-2-methyl-propyl]spiro[indoline-3,4′-pyrrolidine]-2′-carbonyl]amino]-3-methoxy-benzoic acid] the same measures were at most 7.2 nM and at most 71 nM. For `COc1cc(C(N)=O)ccc1NC(=O)[C@@H]1N[C@@H](C[C@H](C)C(F)(F)F)[C@@]2(C(=O)Nc3cc(Cl)ccc32)[C@H]1c1cccc(Cl)c1F` (racemic) [Example 12, (2′R,3R,3′S,5′S)-N-(4-carbamoyl-2-methoxy-phenyl)-6-chloro-3′-(3-chloro-2-fluoro-phenyl)-2-oxo-5′-[(2S)-3,3,3-trifluoro-2-methyl-propyl]spiro[indoline-3,4′-pyrrolidine]-2′-carboxamide] the same measures were at most 7.2 nM and at most 71 nM. Regarding `COc1cc(C(N)=O)ccc1NC(=O)[C@@H]1N[C@@H](C[C@@H](C)C(F)(F)F)[C@@]2(C(=O)Nc3cc(Cl)ccc32)[C@H]1c1cccc(Cl)c1F` (racemic) [Example 13, (2′R,3R,3′S,5′S)-N-(4-carbamoyl-2-methoxy-phenyl)-6-chloro-3′-(3-chloro-2-fluoro-phenyl)-2-oxo-5′-[(2R)-3,3,3-trifluoro-2-methyl-propyl]spiro[indoline-3,4′-pyrrolidine]-2′-carboxamide], the IC50 on GST-tag full length MDM2 was at most 7.2 nM; in the test with SJSA-1 (Homo sapiens, SJSA-1, 120 h), at most 71 nM. Taken in the same sequence, the figures for `COc1cc(C(=O)O)ccc1NC(=O)[C@@H]1N[C@@H](CC(C)(C)CF)[C@@]2(C(=O)Nc3cc(Cl)ccc32)C1c1cccc(Cl)c1F` (mixture of isomers) [Example 19, 4-[(2′R,3R,3′S,5′S)-6-chloro-3′-(3-chloro-2-fluoro-phenyl)-5′-(3-fluoro-2,2-dimethyl-propyl)-2-oxo-spiro[indoline-3,4′-pyrrolidine]-2′-carbonyl]amino-3-methoxy-benzoic acid] were at most 3.6 nM and at most 71 nM. Turning to `COc1cc(C(N)=O)ccc1NC(=O)[C@@H]1N[C@@H](CC(C)(C)CF)[C@@]2(C(=O)Nc3cc(Cl)ccc32)C1c1cccc(Cl)c1F` (mixture of isomers) [Example 20, (4-carbamoyl-2-methoxy-phenyl) (2′R,3R,3′S,5′S)-6-chloro-3′-(3-chloro-2-fluoro-phenyl)-5′-(3-fluoro-2,2-dimethyl-propyl)-2-oxo-spiro[indoline-3,4′-pyrrolidine]-2′-carboxamide], the IC50 was at most 3.6 nM at GST-tag full length MDM2 and at most 71 nM in the test with SJSA-1 (Homo sapiens, SJSA-1, 120 h). For `COc1cc(C(N)=O)ccc1NC(=O)[C@@H]1N[C@@H](CC(C)(C)CF)[C@@]2(C(=O)Nc3cc(Cl)ccc32)C1c1cccc(Cl)c1F` (single isomer, unassigned) [Example 22], the IC50 on GST-tag full length MDM2 is at most 3.6 nM; in the test on SJSA-1 (Homo sapiens, SJSA-1, 120 h) it was at most 20 nM.

Turning to `CCOC(=O)c1ccc(NC(=O)[C@@H]2N[C@@H](C[C@H](C)C(F)(F)F)[C@@]3(C(=O)Nc4cc(Cl)ccc43)[C@H]2c2cccc(Cl)c2F)c(OC)c1` [Example 9b, ethyl 4-[[(2′R,3R,3′S,5′S)-6-chloro-3′-(3-chloro-2-fluoro-phenyl)-2-oxo-5′-[(2S)-3,3,3-trifluoro-2-methyl-propyl]spiro[indoline-3,4′-pyrrolidine]-2′-carbonyl]amino]-3-methoxy-benzoate], the IC50 with SJSA-1 (Homo sapiens, SJSA-1, 120 h) was 71 to 550 nM.

Regarding `COc1cc(C(=O)O)ccc1NC(=O)[C@@H]1N[C@@H](CC(C)(C)CF)[C@@]2(C(=O)Nc3cc(Cl)ccc32)[C@H]1c1cccc(Cl)c1F` [Example 21, 4-[(2′R,3R,3′S,5′S)-6-chloro-3′-(3-chloro-2-fluoro-phenyl)-5′-(3-fluoro-2,2-dimethyl-propyl)-2-oxo-spiro[indoline-3,4′-pyrrolidine]-2′-carbonyl]amino-3-methoxy-benzoic acid], the IC50 is at most 3.6 nM at GST-tag full length MDM2 and at most 20 nM in the test with SJSA-1 (Homo sapiens, SJSA-1, 120 h). On to `CCOC(=O)c1ccc(NC(=O)[C@@H]2N[C@@H](C[C@@H](C)C(F)(F)F)[C@@]3(C(=O)Nc4cc(Cl)ccc43)[C@H]2c2cccc(Cl)c2F)c(OC)c1` [Example 26, ethyl-4-[[(2′R,3′R,3′S,5′S)-6-chloro-3′(3-chloro-2-fluoro-phenyl)-2-oxo-5′-[(2R)-3,3,3-trifluoro-2-methyl-propyl]spiro[indoline-2,4′-pyrrolidine]-2′-carbonyl]amino]-3-methoxy-benzoate], for which the IC50 on GST-tag full length MDM2 is at most 7.2 nM; in the test on SJSA-1, at most 500 nM. As for `COc1cc(C(=O)O)ccc1NC(=O)[C@@H]1N[C@@H](C[C@@H](C)C(F)(F)F)[C@@]2(C(=O)Nc3cc(Cl)ccc32)[C@H]1c1cccc(Cl)c1F` [Example 27, 4-[[(2′R,3R,3′S,5′S)-6-chloro-3′-(3-chloro-2-fluoro-phenyl)-2-oxo-5′-[(2R)-3,3,3-trifluoro-2-methyl-propyl]spiro[indoline-3,4′-pyrrolidine]-2′-carbonyl]amino]-3-methoxy-benzoic acid], the IC50 on GST-tag full length MDM2 was at most 3.6 nM; in the test with SJSA-1 (Homo sapiens, SJSA-1, 120 h) it was at most 20 nM.

For the compound `COc1cc(C(N)=O)ccc1NC(=O)[C@@H]1N[C@@H](C[C@@H](C)C(F)(F)F)[C@@]2(C(=O)Nc3cc(Cl)ccc32)[C@H]1c1cccc(Cl)c1F` [Example 28, (2′R,3R,3′S,5′S)-N-(4-carbamoyl-2-methoxy-phenyl)-6-chloro-3′-(3-chloro-2-fluoro-phenyl)-2-oxo-5′-[(2R)-3,3,3-trifluoro-2-methyl-propyl]spiro[indoline-3,4′-pyrrolidine]-2′-carboxamide], the half-maximal inhibitory concentration (IC50) is at most 3.6 nM on GST-tag full length MDM2 and at most 20 nM with SJSA-1 (Homo sapiens, SJSA-1, 120 h). Take `COc1cc(C(=O)O)ccc1NC(=O)[C@@H]1N[C@@H](C[C@H](C)C(F)(F)F)[C@@]2(C(=O)Nc3cc(Cl)ccc32)[C@H]1c1cccc(Cl)c1F` [Example 65, 4-[[(2′R,3R,3′S,5′S)-6-chloro-3′-(3-chloro-2-fluoro-phenyl)-2-oxo-5′-[(2S)-3,3,3-trifluoro-2-methyl-propyl]spiro[indoline-3,4′-pyrrolidine]-2′-carbonyl]amino]-3-methoxy-benzoic acid]: the IC50 on GST-tag full length MDM2 is at most 3.6 nM; in the test on SJSA-1 (Homo sapiens, SJSA-1, 120 h), at most 20 nM.

As to `COC(=O)c1ccc(NC(=O)[C@@H]2N[C@@H](CC3(CF)CC3)C3(C(=O)Nc4cc(Cl)ccc43)[C@H]2c2cccc(Cl)c2F)c(OC)c1` (some centres unmarked) [Example 73, 4-{[6-chloro-4′-(3-chloro-2-fluoro-phenyl)-2′-(1-fluoromethyl-cyclopropylmethyl)-2-oxo-1,2-dihydro-spiro[indole-3,3′-pyrrolidin]e-5′-carbonyl]-amino}-3-methoxy-benzoic acid methyl ester], the IC50 at GST-tag full length MDM2 was at most 7.2 nM.
